The values below come from patent publication US20160326142A1, “PYRAZOLE CARBOXAMIDE COMPOUNDS, COMPOSITIONS AND METHODS OF USE” (Genentech, Inc., priority 2012, published 2016).

Structures are written as SMILES.

This assay concerns the target T1, ITK (Homo sapiens, UniProt Q08881).
T1 construct: purchased Invitrogen PV3875
T1 sequence (Q08881 1-620): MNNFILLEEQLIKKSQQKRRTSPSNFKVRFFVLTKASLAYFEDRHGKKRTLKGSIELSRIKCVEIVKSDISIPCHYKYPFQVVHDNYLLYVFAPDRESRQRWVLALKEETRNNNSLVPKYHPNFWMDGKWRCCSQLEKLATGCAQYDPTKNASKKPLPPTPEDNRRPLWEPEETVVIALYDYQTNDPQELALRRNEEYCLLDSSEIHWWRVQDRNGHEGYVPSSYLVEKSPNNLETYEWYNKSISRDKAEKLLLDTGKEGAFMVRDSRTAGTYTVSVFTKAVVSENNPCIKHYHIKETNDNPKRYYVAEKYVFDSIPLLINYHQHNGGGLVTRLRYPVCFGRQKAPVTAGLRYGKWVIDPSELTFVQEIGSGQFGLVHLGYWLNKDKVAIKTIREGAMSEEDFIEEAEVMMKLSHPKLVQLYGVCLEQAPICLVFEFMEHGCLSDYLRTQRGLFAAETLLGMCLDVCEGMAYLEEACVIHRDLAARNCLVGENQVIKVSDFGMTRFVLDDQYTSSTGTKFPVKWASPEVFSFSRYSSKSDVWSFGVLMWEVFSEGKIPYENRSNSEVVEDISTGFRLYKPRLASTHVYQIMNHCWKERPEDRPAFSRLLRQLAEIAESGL
The experiment in a line: ITK enzyme assay (Caliper or LCMS peptide phosphorylation). Format: biochemical. Conditions: purified ITK (Invitrogen PV3875), 20 μM ATP, Ki by Morrison's quadratic equation. The method, then:
The ability of purified ITK (Invitrogen PV3875) to catalyze peptide phosphorylation is monitored using a Caliper LabChip 3000 microfluidic unit (Caliper assay) or by liquid chromatography-mass spectrometry (LCMS) using a Waters Acquity system (LCMS assay). […] Reactions are quenched by the addition of 2,2′,2″,2′″-(ethane-1,2-diyldinitrilo)tetraacetic acid (50 mM final). Non-phosphorylated substrate and phosphorylated product peptides are separated and quantified using a Caliper LabChip 3000 instrument. […] Reactions are quenched by the addition of trichloroacetic acid (5% v/v final). Non-phosphorylated substrate and phosphorylated product peptides are separated by ultra performance LC and detected by a coupled triple quadrupole MS device applying multiple reaction monitoring (MRM) for quantification. The area of the MRM-extracted mass signal is used to assess the inhibition by test compounds. Equilibrium dissociation constant (Ki) values for ITK inhibitors are calculated from plots of activity vs. inhibitor concentration using Morrison's quadratic equation that accounts for the potential of tight binding, and by also applying the conversion factor that accounts for competitive inhibition and the concentration of ATP used in the assay relative to its apparent Michaelis constant (Km,app).
`CCC(c1cccnc1)n1cc(NC(=O)c2n[nH]c3c2CCC(C)(C)C3)cn1` (single isomer, unassigned) [Example 54b, 6,6-dimethyl-N-(1-(1-(pyridin-3-yl)propyl)-1H-pyrazol-4-yl)-4,5,6,7-tetrahydro-1H-indazole-3-carboxamide]: affinity was put at a Ki of 6 nM.

As to `CC1(C)CCc2c(C(=O)Nc3cnn(C(CCN)c4ccccc4)c3)n[nH]c2C1` (single isomer, unassigned) [Example 42a, N-(1-(3-amino-1-phenylpropyl)-1H-pyrazol-4-yl)-6,6-dimethyl-4,5,6,7-tetrahydro-1H-indazole-3-carboxamide], the Ki was found to be 10 nM. On to `CC1(C)CCc2c(C(=O)Nc3cnn([C@@H]4COC[C@H]4c4ccccc4)c3)n[nH]c2C1` (single isomer, unassigned) [Example 135b, 6,6-dimethyl-N-(1-(4-phenyltetrahydrofuran-3-yl)-1H-pyrazol-4-yl)-4,5,6,7-tetrahydro-1H-indazole-3-carboxamide], for which the Ki was found to be 14 nM. `CC1(C)CCc2c(C(=O)Nc3cnn(C(c4cccc(Cl)c4)C4CCOCC4)c3)n[nH]c2C1` (single isomer, unassigned) [Example 115a, N-(1-((3-chlorophenyl)(tetrahydro-2H-pyran-4-yl)methyl)-1H-pyrazol-4-yl)-6,6-dimethyl-4,5,6,7-tetrahydro-1H-indazole-3-carboxamide] displayed a Ki of 0.2 nM. To `CC[C@@H](c1ccccc1)n1cc(NC(=O)c2n[nH]c3c2C2CC2CC3)cn1` (single isomer, unassigned) [Example 25b] belongs 94 nM; to `CC1(C)CCc2c(C(=O)Nc3cnn(C(c4ccccc4)C4CS(=O)(=O)C4)c3)n[nH]c2C1` (single isomer, unassigned) [Example 89b], 4 nM; to `CN(C)CCC(c1ccccc1)n1cc(NC(=O)c2n[nH]c3c2CC2CC2(C)C3)cn1` (single isomer, unassigned) [Example 52d, N-(1-(3-(dimethylamino)-1-phenylpropyl)-1H-pyrazol-4-yl)-5a-methyl-1,4,4a,5,5a,6-hexahydrocyclopropa[f]indazole-3-carboxamide], 100 nM. `CC1(C)CCc2c(C(=O)Nc3cnn(C(c4ccccc4)C4CC[N+](C)([O-])CC4)c3)n[nH]c2C1` (single isomer, unassigned) [Example 140a, 4-((4-(6,6-dimethyl-4,5,6,7-tetrahydro-1H-indazole-3-carboxamido)-1H-pyrazol-1-yl)(phenyl)methyl)-1-methylpiperidine 1-oxide] returned a Ki of 0.4 nM.

As to `CC1(C)CCc2c(C(=O)Nc3cnn(C(c4nccs4)C4CCSCC4)c3)n[nH]c2C1` (single isomer, unassigned) [Example 85a, 6,6-dimethyl-N-(1-((tetrahydro-2H-thiopyran-4-yl)(thiazol-2-yl)methyl)-1H-pyrazol-4-yl)-4,5,6,7-tetrahydro-1H-indazole-3-carboxamide], the affinity, expressed as Ki, was 0.6 nM. Take `C#CC1(C)CCc2c(C(=O)Nc3cnn(Cc4ccccc4)c3)n[nH]c2C1` (single isomer, unassigned) [Example 130b, N-(1-benzyl-1H-pyrazol-4-yl)-6-ethynyl-6-methyl-4,5,6,7-tetrahydro-1H-indazole-3-carboxamide]: affinity was put at a Ki of 2 nM. Turning to `N#Cc1cccc(Cn2cc(NC(=O)c3n[nH]c4c3CCC(c3cncnc3)C4)cn2)c1` (single isomer, unassigned) [Example 4a, N-(1-(3-cyanobenzyl)-1H-pyrazol-4-yl)-6-(pyrimidin-5-yl)-4,5,6,7-tetrahydro-1H-indazole-3-carboxamide], the affinity corresponds to a Ki of 360 nM. The same measure for `CC12Cc3c(C(=O)Nc4cnn(C(c5ccccc5)C5CCS(=O)(=O)CC5)c4)n[nH]c3C1C2` (single isomer, unassigned) [Example 152a, N-(1-((1,1-dioxidotetrahydro-2H-thiopyran-4-yl)(phenyl)methyl)-1H-pyrazol-4-yl)-4a-methyl-4,4a,5,5a-tetrahydro-1H-cyclopropa[4,5]cyclopenta[1,2-c]pyrazole-3-carboxamide]: 42 nM. To `O=C(Nc1cnn(Cc2ccccc2)c1)c1n[nH]c2c1CC(F)(F)CC2` [Example 17, N-(1-benzyl-1H-pyrazol-4-yl)-5,5-difluoro-4,5,6,7-tetrahydro-1H-indazole-3-carboxamide] belongs 36 nM; to `CC12CCc3c(C(=O)Nc4cnn(Cc5ccccc5)c4)n[nH]c3C1C2` (single isomer, unassigned) [Example 153b, N-(1-benzyl-1H-pyrazol-4-yl)-5a-methyl-1,4,5,5a,6,6a-hexahydrocyclopropa[g]indazole-3-c arboxamide], 15 nM; to `CC1(C)CCc2c(C(=O)Nc3cnn(C(c4cccnc4)C4CC[S+]([O-])CC4)c3)n[nH]c2C1` (single isomer, unassigned) [Example 147b, 6,6-dimethyl-N-(1-((1-oxidotetrahydro-2H-thiopyran-4-yl)(pyridin-3-yl)methyl)-1H-pyrazol-4-yl)-4,5,6,7-tetrahydro-1H-indazole-3-carboxamide], 4 nM. Turning to `O=C(Nc1cnn(Cc2ccccc2)c1)c1n[nH]c2c1C1CC1CC2` (single isomer, unassigned) [Example 23a, N-(1-benzyl-1H-pyrazol-4-yl)-3,4,5,5a,6,6a-hexahydrocyclopropa[e]indazole-1-carboxamide], the Ki came out at 24 nM. To `CC1(C)CCc2c(C(=O)Nc3cnn(C(c4cccnc4)C4CCCCS4(=O)=O)c3)n[nH]c2C1` (single isomer, unassigned) [Example 144c, N-(1-((1,1-dioxidotetrahydro-2H-thiopyran-2-yl)(pyridin-3-yl)methyl)-1H-pyrazol-4-yl)-6,6-dimethyl-4,5,6,7-tetrahydro-1H-indazole-3-carboxamide] belongs 0.1 nM; to `Cn1cc(C(c2ccccc2)n2cc(NC(=O)c3n[nH]c4c3C3CC3CC4)cn2)cn1` (single isomer, unassigned) [Example 35a, N-(1-((1-methyl-1H-pyrazol-4-yl)(phenyl)methyl)-1H-pyrazol-4-yl)-3,4,5,5a,6,6a-hexahydro cyclopropa[e]indazole-1-carboxamide], 13 nM; to `N#Cc1cccc(Cn2cc(NC(=O)c3n[nH]c4c3CCC(c3cncnc3)C4)cn2)c1` (single isomer, unassigned) [Example 4b, N-(1-(3-cyanobenzyl)-1H-pyrazol-4-yl)-6-(pyrimidin-5-yl)-4,5,6,7-tetrahydro-1H-indazole-3-carboxamide], 240 nM. Turning to `CC1(C)CCc2c(C(=O)Nc3cnn(C(c4cccnc4)C4CC[S+]([O-])CC4)c3)n[nH]c2C1` (single isomer, unassigned) [Example 147a, 6,6-dimethyl-N-(1-((1-oxidotetrahydro-2H-thiopyran-4-yl)(pyridin-3-yl)methyl)-1H-pyrazol-4-yl)-4,5,6,7-tetrahydro-1H-indazole-3-carboxamide], the Ki worked out at 0.6 nM. `Cn1ccnc1C(c1cccs1)n1cc(NC(=O)c2n[nH]c3c2CCC(C)(C)C3)cn1` (single isomer, unassigned) [Example 114a, 6,6-dimethyl-N-(1-((1-methyl-1H-imidazol-2-yl)(thiophen-2-yl)methyl)-1H-pyrazol-4-yl)-4,5,6,7-tetrahydro-H-indazole-3-carboxamide] came in with a Ki of 0.8 nM.

With `CC1(C)CCc2c(C(=O)Nc3cnn(C(c4cccc(S(C)(=O)=O)c4)C4CCOCC4)c3)n[nH]c2C1` (single isomer, unassigned) [Example 154a, 6,6-dimethyl-N-(1-((3-(methylsulfonyl)phenyl)(tetrahydro-2H-pyran-4-yl)methyl)-1H-pyrazol-4-yl)-4,5,6,7-tetrahydro-1H-indazole-3-carboxamide], the affinity corresponds to a Ki of 0.1 nM.

The compound `CN1CCN(CC(c2ccccc2)n2cc(NC(=O)c3n[nH]c4c3CCC(C)(C)C4)cn2)C1=O` (single isomer, unassigned) [Example 131a, 6,6-dimethyl-N-(1-(2-(3-methyl-2-oxoimidazolidin-1-yl)-1-phenylethyl)-1H-pyrazol-4-yl)-4,5,6,7-tetrahydro-1H-indazole-3-carboxamide] returned a Ki of 1 nM. To `CC12Cc3c(C(=O)Nc4cnn(C(c5ccccc5)C5CCS(=O)(=O)CC5)c4)n[nH]c3C1C2` (single isomer, unassigned) [Example 152b, N-(1-((1,1-dioxidotetrahydro-2H-thiopyran-4-yl)(phenyl)methyl)-1H-pyrazol-4-yl)-4a-methyl-4,4a,5,5a-tetrahydro-1H-cyclopropa[4,5]cyclopenta[1,2-c]pyrazole-3-carboxamide] belongs 3 nM.
